{"source": "patent US20230393140A1", "about": "“BINDING ASSAYS INVOLVING A PLURALITY OF SYNTHETIC COMPOUNDS, TARGETS, AND COUNTER TARGETS” (SRI International, priority 2020, published 2023)", "key": {"K-Ras": {"biological_target": "T1, K-Ras (Homo sapiens, UniProt P01116, G12V)", "T1 construct": "purchased Cytoskeleton Inc. CS-RS04", "test": "MST binding affinity of resynthesized NNP hits to K-Ras", "method_in_brief": "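K-Ras G12V was GTP-loaded (EDTA exchange, 750 μM GTP, 2 h at 30° C, then MgCl2) and labeled with maleimide-647 dye. MST was run at room temperature in 20 mM HEPES pH 7.4, 150 mM NaCl, 10 mM MgCl2, 0.05% Tween-20, 1 mM DTT. Incubations lasted 15, 30 and 45 min; triplicate data fitted for affinity.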"}, "K-Ras-Raf interaction": {"biological_target": "T2, K-Ras-Raf interaction (Homo sapiens, UniProt P01116, G12V)", "T2 construct": "purchased Cytoskeleton Inc. (K-Ras); Jena Bioscience (Raf-RBD) CS-RS04; PR-305", "test": "K-Ras/Raf inhibition assay (MST competition binding)", "conditions": "NNP at 1 μM pre-incubated with K-Ras 15 minutes at room temperature, then Raf titration", "description": "This was tested on an MST competition binding assay (see FIG. 11A).\nLoading was performed according to the following protocol: The 200 μM stock solution of the target protein was diluted to 10 μM in 20 mM HEPES pH 8.0, 150 mM NaCl, 10 mM MgCl2, 1 mM TCEP, 0.05% Tween-20 (total volume 110 μL). 10 μL were set aside for later labeling quality control. EDTA pH 8.0 (stock concentration 10 mM) was added to the protein solution to a final concentration of 80 μM. GTP (stock concentration 50 mM) was added to the protein solution to a final concentration of 750 μM. The solution was incubated at 30° C. for 2 hours (PCR tube) and then placed on ice for 2 minutes. MgCl2 was added to the protein solution to a final concentration of 100 mM. The resulting protein solution was buffer exchanged into the buffer required in the labeling kit for labeling. […] All the other target molecules (TNFα, IL-6, IL-6R and ASGPR) were used as received without any additional treatment.\nLoading of K-Ras with the GTP was performed according to the protocol detailed above (Activation of K-Ras by GTP loading). After the GTP loading the resulting protein solution was buffer exchanged into 100 mM HEPES pH 6.5, 5 mM MgCl2, 50 mM NaCl, 1 mM TCEP."}, "[1]": {"biological_target": "T3, K-Ras-CF555 versus Raf-AF647 (Homo sapiens, UniProt P01116, G12V)", "T3 construct": "purchased Cytoskeleton Inc. (K-Ras); Jena Bioscience (Raf-RBD) CS-RS04; PR-305", "test": "On-bead FAST/ADM competition screen, MFI of target and counter target", "type": "binding", "conditions": "hit bead in primary competition screen"}, "[2]": {"tested_on": "HepG2 cells (high ASGPR expressing)", "test": "ASGPR uptake assay, flow cytometry, HepG2", "type": "cell-based, human", "conditions": "fluorescein-labeled compounds, flow cytometry, 2 hours", "description": "(§1) The HEK293T (human embryonic kidney cells) and human hepatoma HepG2 cells were grown according to the protocols provided by the American Type Culture Collection (ATCC). When cells reached cell were seeded at ˜1.5×10^5 cells/well in 24-well culture plate for the uptake assay. After at least 16 hours of culture to allow cell attach and equilibrate, the compound treatment was set up for the uptake assay.\n(§2) The fluorescein-labeled NNPs or fluorescein-labeled N-acetylgalactosamine (GalNAc) recognizing ASGRPR were added to wells at indicated concentrations and incubated for 2 hours. Two plates were prepared for each treatment condition, one serving as 4 degrees C. no internalization control that was kept on ice during incubation, while the second plate was incubated at 37 degrees C. to allow for energy dependent internalization. Following the incubation period, all plates were placed on ice and washed three times with ice-cold PBS/3% BSA/2 mM EDTA and then lifted with trypsin. Cells were transferred to a 96-well round bottom plates in FACS buffer. Cells were then analyzed by flow cytometry using LSR-HJ with HTS sampler (BD Biosciences, San Jose, CA, USA). Data (mean fluorescence intensities) and further analyzed using Flowjo software (BD Biosciences, San Jose, CA, USA). The internalized fraction was expressed as the difference between the corresponding 4 degrees C. and 37 degrees C. MFIs as previously described."}, "[3]": {"tested_on": "HEK293 cells (non-expressing)", "test": "ASGPR uptake assay, flow cytometry, HEK293", "type": "cell-based, human", "conditions": "fluorescein-labeled compounds", "description": "as §1\nas §2, with “MFIs as previously described.” left out"}}, "note": "Read-outs that look alike come from different tables or passages of the source. Numbered stars: 1 amine (or outer) side, 2 acyl side, 3 side chain; on linkers, the order of the positions; unused ones are H or OH. Square brackets hold non-standard residues; d marks the D form. Peptide text beside a SMILES is read from it. * marks the point of attachment. 5FAM = O=C1OC2(c3ccc(O)cc3Oc3cc(O)ccc32)c2ccc(C(=O)*)cc21; NHCH2C6H4(4-CH2CONH2) = NC(=O)Cc1ccc(CN*)cc1; X1 = O=C(Cc1ccc(CN[*:1])cc1)[*:2]", "data": [{"molecule": "CC(C)C[C@@H](NC(=O)c1ccc2c(c1)C(=O)OC21c2ccc(O)cc2Oc2cc(O)ccc21)C(=O)N1CCC[C@@H]1C(=O)N[C@H](CCC(=O)O)C(=O)N[C@H](CO)C(=O)N[C@@H](Cc1ccccc1)C(=O)NCc1ccc(CC(=O)NCC(=O)N[C@@H](C(=O)N2CCC[C@@H]2C(=O)N[C@H](CCCNC(=N)N)C(=O)N[C@@H](C)C(=O)NCc2ccc(CC(=O)N3CCC[C@@H]3C(=O)N[C@H](CO)C(=O)N[C@H](CCC(=O)O)C(=O)N[C@H](CCCNC(=N)N)C(=O)NCC(=O)NCc3ccc(CC(=O)N4CCC[C@@H]4C(=O)N[C@H](CCCCN)C(=O)N[C@H](Cc4ccc(O)cc4)C(=O)N[C@H](CCCNC(=N)N)C(=O)N[C@@H](Cc4ccccc4)C(=O)NCc4ccc(CC(=O)N[C@H](CCCNC(=N)N)C(=O)N[C@H](Cc5ccc(O)cc5)C(=O)N[C@@H](C(=O)N[C@H](CCC(=O)O)C(=O)N[C@@H](C)C(=O)NCc5ccc(CC(=O)N[C@H](Cc6ccc(O)cc6)C(=O)N6CCC[C@@H]6C(=O)N[C@H](CCCNC(=N)N)C(=O)N[C@H](CCC(=O)O)C(=O)NCC(=O)NCc6ccc(CC(N)=O)cc6)cc5)[C@H](C)O)cc4)cc3)cc2)C(C)C)cc1", "note": "[KRAS-1-4] (5FAM-[dL][dP][dE][dS]F[X1]G[dV][dP][dR]A[X1][dP][dS][dE][dR]G[X1][dP][dK][dY][dR]F[X1][dR][dY][dT][dE]A[X1][dY][dP][dR][dE]G-{NHCH2C6H4(4-CH2CONH2)})", "values": [{"measurement": "Kd", "setting": "K-Ras; read-out: KD of K-Ras hits by MST", "result": 36, "unit": "nM"}, {"measurement": "Inhibition of K-Ras-Raf PPI", "setting": "K-Ras-Raf interaction", "result": "no inhibition"}, {"measurement": "MFI ratio of the target (K-Ras-CF555) to the counter target (Raf-AF647) for the hit beads", "setting": "[1]", "result": 1.89}]}, {"molecule": "CC(C)C[C@@H](NC(=O)[C@@H](CCC(=O)O)NC(=O)[C@@H](C)NC(=O)Cc1ccc(CNC(=O)[C@H](Cc2ccccc2)NC(=O)[C@@H](CCCNC(=N)N)NC(=O)[C@@H](Cc2ccc(O)cc2)NC(=O)[C@@H](CCCCN)NC(=O)[C@H]2CCCN2C(=O)Cc2ccc(CNC(=O)CNC(=O)[C@@H](CCCNC(=N)N)NC(=O)[C@@H](CCC(=O)O)NC(=O)[C@@H](CO)NC(=O)[C@H]3CCCN3C(=O)Cc3ccc(CNC(=O)[C@H](C)NC(=O)[C@@H](CCCNC(=N)N)NC(=O)[C@H]4CCCN4C(=O)[C@H](NC(=O)CNC(=O)Cc4ccc(CNC(=O)[C@H](Cc5ccccc5)NC(=O)[C@@H](CCC(=O)O)NC(=O)[C@@H](Cc5c[nH]cn5)NC(=O)[C@H]5CCCN5C(=O)[C@@H](CO)NC(=O)c5ccc6c(c5)C(=O)OC65c6ccc(O)cc6Oc6cc(O)ccc65)cc4)C(C)C)cc3)cc2)cc1)C(=O)N[C@H](CCCCN)C(=O)N[C@@H](C)C(=O)NCc1ccc(CC(=O)NCC(=O)N[C@H](Cc2c[nH]c3ccccc23)C(=O)N[C@H](Cc2c[nH]cn2)C(=O)N[C@H](CCCNC(=N)N)C(=O)N[C@@H](C)C(=O)NCc2ccc(CC(N)=O)cc2)cc1", "note": "[KRAS-1-14] (5FAM-[dS][dP][dH][dE]F[X1]G[dV][dP][dR]A[X1][dP][dS][dE][dR]G[X1][dP][dK][dY][dR]F[X1][dA][dE][dL][dK]A[X1]G[dW][dH][dR]A-{NHCH2C6H4(4-CH2CONH2)})", "values": [{"measurement": "Kd", "setting": "K-Ras; read-out: KD (nM) [95% conf. int], MST, NNP1 library hit, target K-Ras, one-site binding model", "result": 155, "unit": "nM"}, {"measurement": "Internalization (cell uptake) in HepG2", "setting": "[2]", "result": "minimal uptake"}, {"measurement": "Internalization (cell uptake) in HEK293", "setting": "[3]", "result": "minimal uptake"}]}]}
